From ChEMBL document CHEMBL5442168, “ASAP - In vitro liver microsomal stability” (2024) come the findings set out here.

Usually half-life stands for how long it takes for the measured level to halve. By microsomal CLint is commonly meant the capacity of the preparation to metabolise the compound, expressed as a volume cleared per time. A low value points to greater metabolic stability.

The nature of series [1]: Mouse liver microsomal stability of compound in microsomal protein, PBS buffer pH 7.4, NADPH, glucose-6-phosphate and glucose-6-phosphate dehydrogenase media. Aliquotes were taken at 5 time points and after stopping the reaction, supernatants were analyzed using HPLC coupled with a tandem mass spectrometer. The elimination constant, half-life, and intrinsic clearance are determined as results using linear regression analysis. The assay has been performed by Enamine biological services, Bienta Ltd.The protocol is publicly available: dx.doi.org/10.17504/protocols.io.5qpvokdb9l4o/v1. In kind it is ADME, microsomes, Microsome. To be noted: for half-life / microsomal CLint: liver microsomes; for Remaining / Remaining (without cofactor) / CLint / T1/2: microsomes. On the technique in general: Microsomes from liver hold many membrane-bound enzymes, among them those of drug oxidation.

A short description of series [2]: Human liver microsomal stability of compound in microsomal protein, PBS buffer pH 7.4, NADPH, glucose-6-phosphate and glucose-6-phosphate dehydrogenase media. Aliquotes were taken at 5 time points and after stopping the reaction, supernatants were analyzed using HPLC coupled with a tandem mass spectrometer. The elimination constant, half-life, and intrinsic clearance are determined as results using linear regression analysis. The assay has been performed by Enamine biological services, Bienta Ltd.The protocol is publicly available: dx.doi.org/10.17504/protocols.io.5qpvokdb9l4o/v1. In kind it is ADME, microsomes, Microsome. To be noted: for half-life / microsomal CLint: liver microsomes; for Remaining / Remaining (without cofactor) / CLint / T1/2: microsomes.

Several values for one entry are separate records, joined by “and”; a condition that tells them apart may be missing. Equal values may be shown once.
Throughout, for Remaining (without cofactor): time not given here.
Throughout, for Remaining: time not given here.

Regarding `CCNC(=O)c1cc2c(N[C@@H](c3ccc4c(c3)S(=O)(=O)NCC4)C(C)C)ncnc2[nH]1`, in series [1], the half-life is 36.8 min, the microsomal CLint is 45 µL/min/mg, the Remaining was 49% and the “Remaining (without cofactor)” value is reported as 101%. Further, in series [2], the half-life was 19.7 min, the microsomal CLint was found to be 85 µL/min/mg, the Remaining was found to be 24% and the “Remaining (without cofactor)” value came to 107%.
As to `CC(C)[C@@H](Nc1ncnc2[nH]cc(C(N)=O)c12)c1ccc2c(c1)OCCO2`, in series [1], the half-life is 11.7 min, the microsomal CLint worked out at 142 µL/min/mg, the Remaining was 9% and the “Remaining (without cofactor)” value is given as 98%. In series [2], the half-life was found to be 11.7 min, the microsomal CLint worked out at 143 µL/min/mg, the Remaining was determined as 9% and the “Remaining (without cofactor)” value was determined as 110%.
With `CC(C)(C)[C@@H](Nc1ncnc2[nH]c(-c3cnn(CC(N)=O)c3)cc12)c1ccc2c(c1)OCCO2`, in series [1], the half-life is 35.2 min; the microsomal CLint stood at 47 µL/min/mg; the CLint is 39 µL/min/mg; the Remaining was 46% and 54%. For the same compound, in series [1], the “Remaining (without cofactor)” value was 107% and 106%; the T1/2 came to 43.1 min. Moreover, in series [2], the half-life is 12.6 min; the microsomal CLint came to 133 µL/min/mg; the CLint amounted to 100 µL/min/mg; the Remaining was 11% and 18%. Besides, in series [2], the “Remaining (without cofactor)” value was 87% and 109%; the T1/2 is listed as 16.8 min.
In the case of `CC(C)(C)[C@H](Nc1ncnc2[nH]c(-c3cnn(CC(N)=O)c3)cc12)c1ccc2c(c1)OCCO2`, in series [1], the half-life was found to be 38.3 min, the microsomal CLint was 44 µL/min/mg, the Remaining is 48% and the “Remaining (without cofactor)” value came out at 105%. In series [2], the half-life was determined as 10.9 min, the microsomal CLint stood at 153 µL/min/mg, the Remaining stood at 9% and the “Remaining (without cofactor)” value is 100%.
Regarding `COc1ccc2c(c1)CCN(c1ncnc3[nH]ccc13)[C@H]2C(C)C`, in series [1], the half-life stood at 5.2 min, the microsomal CLint stood at 321 µL/min/mg, the Remaining turned out to be 1% and the “Remaining (without cofactor)” value stood at 83%. Moreover, in series [2], the half-life is 27.8 min, the microsomal CLint turned out to be 60 µL/min/mg, the Remaining was 38% and the “Remaining (without cofactor)” value was determined as 103%.
Turning to `CC(C)[C@H](CO)Nc1ncnc2[nH]ccc12`, in series [1], the half-life worked out at 171 min, the microsomal CLint is 10 µL/min/mg, the Remaining is on record as 90% and the “Remaining (without cofactor)” value is 93%. Besides, in series [2], the half-life is 289 min, the intrinsic metabolic clearance (microsomal CLint) came out at 6 µL/min/mg, the Remaining is 119% and the “Remaining (without cofactor)” value turned out to be 99%.
With `COc1ccc([C@@H](CC(=O)O)NC(=O)c2ncnc3[nH]ccc23)cc1`, in series [1], the half-life worked out at 686 min, the microsomal CLint is 2 µL/min/mg, the Remaining is on record as 94% and the “Remaining (without cofactor)” value was determined as 96%. For the same compound, in series [2], the half-life came to 240 min, the microsomal CLint worked out at 7 µL/min/mg, the Remaining was 87% and the “Remaining (without cofactor)” value is recorded as 88%.
As to `CC(C)[C@@H](Nc1ncnc2[nH]c(-c3cnn(CCC(N)=O)c3)cc12)c1ccc2c(c1)OCCO2`, in series [1], the half-life was found to be 27.1 min, the microsomal CLint is 62 µL/min/mg, the Remaining was 36% and the “Remaining (without cofactor)” value is listed as 106%. For the same compound, in series [2], the half-life was determined as 16.9 min, the microsomal CLint was 99 µL/min/mg, the Remaining is given as 19% and the “Remaining (without cofactor)” value amounted to 108%.
On to `CC(C)[C@@H](Nc1ncnc2[nH]c(-c3cnn(CC(=O)N(C)C)c3)cc12)c1ccc2c(c1)S(=O)(=O)CCC2`, for which, in series [1], the CLint is 68 µL/min/mg and 31 µL/min/mg; the Remaining was 31% and 59%; the “Remaining (without cofactor)” value is 92% and 102%; the T1/2 is 24.6 min and 53.8 min. For the same compound, in series [2], the CLint is 106 µL/min/mg and 297 µL/min/mg; the “Remaining (without cofactor)” value is 92% and 99%; the T1/2 was 15.8 min and 5.6 min.
Turning to `CC(C)[C@@H](Nc1ncnc2[nH]c(C(=O)N[C@@H]3CCN(C)C3)cc12)c1ccc2c(c1)S(=O)(=O)CCC2`, in series [1], the half-life stood at 151 min, the microsomal CLint stood at 11 µL/min/mg, the Remaining was 80% and the “Remaining (without cofactor)” value amounted to 92%. Besides, in series [2], the half-life turned out to be 83.8 min, the microsomal CLint was determined as 20 µL/min/mg, the Remaining is on record as 70% and the “Remaining (without cofactor)” value came to 106%.
Take `COc1ccc([C@H](Cc2nnn[nH]2)NC(=O)c2ncnc3[nH]ccc23)cc1`: in series [1], the half-life was found to be 206 min, the microsomal CLint came to 7 µL/min/mg, the Remaining came to 115.387% and the “Remaining (without cofactor)” value is on record as 100.411%. Moreover, in series [2], the half-life amounted to 1090 min, the microsomal CLint is 2 µL/min/mg, the Remaining was determined as 105.597% and the “Remaining (without cofactor)” value stood at 84.68%.
On to `O=C(Nc1cccc2c(C(=O)N[C@@H]3c4ccccc4C[C@@H]3C(=O)O)c[nH]c12)NC1CC1`, for which, in series [1], the half-life came to 454 min, the intrinsic metabolic clearance (microsomal CLint) was 4 µL/min/mg, the Remaining was 95% and the “Remaining (without cofactor)” value was found to be 105%. For the same compound, in series [2], the half-life stood at 280 min, the microsomal CLint is 6 µL/min/mg, the Remaining stood at 88% and the “Remaining (without cofactor)” value was found to be 86%.
As for `CCNC(=O)c1cc2c(N[C@H](c3ccc4c(c3)OCCO4)C(C)C)ncnc2[nH]1`, in series [1], the half-life stood at 34.6 min, the microsomal CLint amounted to 48 µL/min/mg, the Remaining came to 47% and the “Remaining (without cofactor)” value is recorded as 94%. For the same compound, in series [2], the half-life is 24.8 min, the microsomal CLint was determined as 67 µL/min/mg, the Remaining amounted to 32% and the “Remaining (without cofactor)” value came out at 100%.
`CC(C)(C)[C@H](Nc1ncnc2[nH]c(-c3cnn(CC(N)=O)c3)cc12)c1ccc2c(n1)OCCO2`: in series [1], the half-life worked out at 162 min, the intrinsic metabolic clearance (microsomal CLint) is 10 µL/min/mg, the Remaining was found to be 88% and the “Remaining (without cofactor)” value was found to be 116%. In series [2], the half-life amounted to 60.8 min, the microsomal CLint was determined as 27 µL/min/mg, the Remaining is reported as 64% and the “Remaining (without cofactor)” value turned out to be 95%.
With `CNCc1cc(-c2cc3c(N[C@H](c4ccc5c(c4)S(=O)(=O)CCC5)C(C)C)ncnc3[nH]2)co1`, in series [1], the half-life is 41.8 min, the microsomal CLint was 40 µL/min/mg, the Remaining came to 51% and the “Remaining (without cofactor)” value stood at 96%. Further, in series [2], the half-life is 25.1 min, the intrinsic metabolic clearance (microsomal CLint) was 67 µL/min/mg, the Remaining is 33% and the “Remaining (without cofactor)” value came out at 98%.
As to `CC(C)[C@@H](Nc1ncnc2[nH]c(-c3ccc4cncn4c3)cc12)c1ccc2c(c1)S(=O)(=O)CCC2`, in series [1], the half-life came to 9.8 min, the microsomal CLint worked out at 170 µL/min/mg, the Remaining is given as 6% and the “Remaining (without cofactor)” value came out at 87%. Besides, in series [2], the half-life is 8 min, the microsomal CLint amounted to 210 µL/min/mg, the Remaining is on record as 4% and the “Remaining (without cofactor)” value is on record as 97%.
`C[C@@H](C(=O)O)[C@@H](NC(=O)c1ncnc2[nH]ccc12)c1ccc(Br)cc1`: in series [1], the half-life is 433 min, the microsomal CLint stood at 4 µL/min/mg, the Remaining is given as 94% and the “Remaining (without cofactor)” value is recorded as 109%. In series [2], the half-life turned out to be 338 min, the microsomal CLint stood at 5 µL/min/mg, the Remaining turned out to be 103% and the “Remaining (without cofactor)” value was found to be 110%.
With `CC(C)[C@@H](Nc1ncnc2[nH]c(-c3cnn(C)c3C#N)cc12)c1ccc2c(n1)OCCO2`, in series [1], the CLint is 169 µL/min/mg and 139 µL/min/mg and 371 µL/min/mg; the Remaining is 6% and 10% and 1%; the “Remaining (without cofactor)” value is 110% and 101% and 99%; the T1/2 was 9.9 min and 12 min and 4.5 min. Besides, the “Remaining (without cofactor)” value in series [2] is 104% and 98% and 93%.
Turning to `CNC(=O)c1c[nH]c2ncnc(N[C@@H](c3ccc4c(c3)NC(=O)CO4)C(C)C)c12`, in series [1], the half-life came to 14.8 min, the microsomal CLint is 113 µL/min/mg, the Remaining is recorded as 16% and the “Remaining (without cofactor)” value is listed as 95%. Moreover, in series [2], the half-life came to 19.5 min, the microsomal CLint was 86 µL/min/mg, the Remaining amounted to 23% and the “Remaining (without cofactor)” value was found to be 98%.
With `CC(C)[C@H](Nc1ncnc2[nH]c(-c3cnn(CC(N)=O)c3)cc12)c1ccc2c(n1)OCCO2`, in series [1], the half-life was determined as 359 min, the microsomal CLint came out at 5 µL/min/mg, the Remaining is recorded as 99% and the “Remaining (without cofactor)” value turned out to be 110%. Besides, in series [2], the half-life came to 134 min, the microsomal CLint was 12 µL/min/mg, the Remaining came out at 85% and the “Remaining (without cofactor)” value is listed as 90%.
For `CNC(=O)Cn1cc(-c2cc3c(N[C@@H](c4ccc5c(c4)S(=O)(=O)CCC5)C(C)C)ncnc3[nH]2)cn1`, in series [1], the half-life came out at 21.6 min; the microsomal CLint came to 77 µL/min/mg; the CLint came to 44 µL/min/mg; the Remaining is 26% and 48%. For the same compound, in series [1], the “Remaining (without cofactor)” value was 103% and 90%; the T1/2 is given as 37.8 min. Further, in series [2], the CLint was 94 µL/min/mg and 237 µL/min/mg; the “Remaining (without cofactor)” value is 96% and 89%; the T1/2 was 17.7 min and 7 min.
